Laboratory results: patent publication US7396837B2, “Antitumoral analogs of lamellarins” (Pharma Mar, S.A.U., priority 2002, dated 2008)
Read-outs that look alike come from different tables or passages of the source.

Tests used:
Type in all cases: cell-based
HT-29 = experiment: SRB colorimetric cell growth inhibition assay, HT-29; settings: Homo sapiens; for CC50: HT-29, read-out: LC50 HT-29, HT-29, LC=cell killing (cytotoxic effect); for GI50 / IC (TGI): HT-29; for GI50: GI=growth inhibition, read-out: GI50 HT-29; for IC (TGI): TGI=total growth inhibition (cytostatic effect), read-out: TGI HT-29
Summary of the method: (§1)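 Sulforhodamine B colorimetric readout measured cell growth and viability after continuous compound exposure of human cancer cell lines in 96-well plates. Triplicate wells gave mean ± SD, from which growth inhibition (GI), cytostatic total growth inhibition (TGI) and cytotoxic cell killing (LC) were calculated.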

LoVo-Dox = experiment: SRB colorimetric cell growth inhibition assay, LoVo-Dox (MDR)
Summary of the method: as §1

DU-145 = experiment: SRB colorimetric cell growth inhibition assay, DU-145; settings: Homo sapiens; for GI50: GI=growth inhibition, read-out: GI50 DU-145; for IC (TGI): TGI=total growth inhibition (cytostatic effect), read-out: TGI DU-145; for CC50: DU-145, read-out: LC50 DU-145, DU-145, LC=cell killing (cytotoxic effect)
Summary of the method: as §1

PANC-1 = experiment: SRB colorimetric cell growth inhibition assay, PANC-1; settings: Homo sapiens; for GI50: GI=growth inhibition, read-out: GI50 PANC-1; for IC (TGI): TGI=total growth inhibition (cytostatic effect), read-out: TGI PANC-1; for CC50: PANC-1, read-out: LC50 PANC-1, PANC-1, LC=cell killing (cytotoxic effect)
Summary of the method: as §1

IGROV-ET = experiment: SRB colorimetric cell growth inhibition assay, IGROV-ET (ET-743 resistant); settings: Homo sapiens; for GI50 / IC (TGI): IGROV-ET; for GI50: GI=growth inhibition, read-out: GI50 IGROV-ET; for IC (TGI): TGI=total growth inhibition (cytostatic effect), read-out: TGI IGROV-ET; for CC50: read-out: LC50 IGROV-ET, IGROV-ET, LC=cell killing (cytotoxic effect)
Summary of the method: as §1

K-562 = experiment: SRB colorimetric cell growth inhibition assay, K-562; settings: Homo sapiens; for GI50 / IC (TGI): K562, K-562; for GI50: GI=growth inhibition, read-out: GI50 K-562; for IC (TGI): TGI=total growth inhibition (cytostatic effect), read-out: TGI K-562; for CC50: K562, read-out: LC50 K-562, K-562, LC=cell killing (cytotoxic effect)
Summary of the method: as §1

LoVo = experiment: SRB colorimetric cell growth inhibition assay, LoVo; settings: Homo sapiens; for CC50: read-out: LC50 LOVO, LOVO, LC=cell killing (cytotoxic effect); for GI50: GI=growth inhibition, read-out: GI50 LOVO; for IC (TGI): TGI=total growth inhibition (cytostatic effect), read-out: TGI LOVO
Summary of the method: as §1

SKOV-3 = experiment: SRB colorimetric cell growth inhibition assay, SKOV-3; settings: Homo sapiens; for CC50: SK-OV-3, read-out: LC50 SKOV-3; for IC (TGI): TGI=total growth inhibition (cytostatic effect)
From the text: Inhibition of Cell Growth by Colorimetric Assay.
A colorimetric type of assay, using sulforhodamine B (SRB) reaction has been adapted for a quantitative measurement of cell growth and viability (following the technique described by P. A. Skehan, et al., J. Natl. Cancer Inst. 1990, 82, 1107-1112).
This form of assay employs 96 well cell culture microplates of 9 mm diameter (T. Mosmann et al., J. of Immunological Methods 1983, 65, 55-63; G. T. Faircloth et al., J. of Tissue and Culture Methods 1988, 11, 201-205).
Most of the cell lines are obtained from American Type Culture Collection (ATCC) derived from different human cancer types.
The values for mean +/− SD of data from triplicate wells are calculated. Some parameters for cellular responses can be calculated: GI=growth inhibition, TGI=total growth inhibition (cytostatic effect) and LC=cell killing (cytotoxic effect).

IGROV = experiment: SRB colorimetric cell growth inhibition assay, IGROV
Summary of the method: as §1

SK-MEL-28 = experiment: SRB colorimetric cell growth inhibition assay, SK-MEL-28; settings: Homo sapiens; for GI50: SK-MEL-28, MEL-28, GI=growth inhibition, read-out: GI50 MEL-28; for CC50: SK-MEL-28, read-out: LC50 MEL-28, MEL-28, LC=cell killing (cytotoxic effect); for IC (TGI): SK-MEL-28, MEL-28, TGI=total growth inhibition (cytostatic effect), read-out: TGI MEL-28
Summary of the method: as §1

A-549 = experiment: SRB colorimetric cell growth inhibition assay, A-549; settings: Homo sapiens; for GI50 / IC (TGI): A549, A-549; for GI50: GI=growth inhibition, read-out: GI50 A-549; for IC (TGI): TGI=total growth inhibition (cytostatic effect), read-out: TGI A-549; for CC50: A549, read-out: LC50 A-549, A-549, LC=cell killing (cytotoxic effect)
Summary of the method: as §1

SK-BR-3 = experiment: SRB colorimetric cell growth inhibition assay, SK-BR-3; settings: Homo sapiens; for GI50: GI=growth inhibition, read-out: GI50 SK-BR-3; for IC (TGI): TGI=total growth inhibition (cytostatic effect), read-out: TGI SK-BR-3; for CC50: SK-BR-3, read-out: LC50 SK-BR-3, SK-BR-3, LC=cell killing (cytotoxic effect)
Summary of the method: as §1

[1] = Homo sapiens, LOVO-DOX; GI=growth inhibition; read-out: GI50 LOVO-DOX
[2] = Homo sapiens, read-out: LC50 LOVO-DOX, LOVO-DOX; LC=cell killing (cytotoxic effect)
[3] = Homo sapiens, IGROV, read-out: LC50 IGROV, IGROV; LC=cell killing (cytotoxic effect)

SMILES	CC50 (HT-29) [µM]	GI50 (HT-29) [µM]	IC (TGI) (HT-29) [µM]	GI50 (LoVo-Dox; [1]) [µM]	CC50 (LoVo-Dox; [2]) [µM]	CC50 (DU-145) [µM]	IC (TGI) (PANC-1; PANC-1, PANC-1) [µM]	CC50 (PANC-1) [µM]	GI50 (IGROV-ET) [µM]	IC (TGI) (IGROV-ET) [µM]	CC50 (IGROV-ET) [µM]	GI50 (K-562) [µM]	IC (TGI) (K-562) [µM]	CC50 (K-562) [µM]	CC50 (LoVo; LoVo) [µM]	CC50 (SKOV-3) [µM]	CC50 (IGROV; [3]) [µM]	GI50 (SK-MEL-28) [µM]	CC50 (SK-MEL-28) [µM]	IC (TGI) (SK-MEL-28) [µM]	other results
COc1cc(-c2c3c4cc(OC)c(OC(=O)[C@H](N)C(C)C)cc4oc(=O)c3n3ccc4c(OC(=O)[C@H](N)C(C)C)c(OC)c(OC)cc4c23)ccc1OC(=O)[C@H](N)C(C)C [Compound 43]	12.1	12.1	12.1	0.937	9.84	12.1	6.57	12.1	0.098	3.24	12.1	0.118	0.565	12.1	12.1	12.1	8.94	0.498	12.1	12.1	IC (TGI) (LoVo-Dox; Homo sapiens, LOVO-DOX; TGI=total growth inhibition (cytostatic effect); read-out: TGI LOVO-DOX): 3.14 µM; GI50 (DU-145; DU-145, DU-145): 0.0574 µM; IC (TGI) (DU-145; DU-145, DU-145): 0.301 µM; GI50 (PANC-1; PANC-1, PANC-1): 1.49 µM; GI50 (LoVo; LoVo): 0.635 µM; IC (TGI) (LoVo; LoVo): 3.72 µM; GI50 (SKOV-3; SK-OV-3, SKOV-3, GI=growth inhibition, read-out: GI50 SKOV-3): 0.146 µM; IC (TGI) (SKOV-3; SK-OV-3, SKOV-3, read-out: TGI SKOV-3): 1.14 µM; GI50 (IGROV; Homo sapiens, IGROV; GI=growth inhibition; read-out: GI50 IGROV): 0.418 µM; IC (TGI) (IGROV; Homo sapiens, IGROV; TGI=total growth inhibition (cytostatic effect); read-out: TGI IGROV): 2.14 µM; GI50 (A-549): 1.9 µM; IC (TGI) (A-549): 12.1 µM; CC50 (A-549): 12.1 µM; GI50 (SK-BR-3; SK-BR-3, SK-BR-3): 0.212 µM; IC (TGI) (SK-BR-3; SK-BR-3, SK-BR-3): 1.1 µM; CC50 (SK-BR-3): 7.9 µM
COc1cc(-c2c3c4cc(OC)c(OC(=O)[C@@H](N)CCCCNC(=O)OCc5ccccc5)cc4oc(=O)c3n3ccc4c(OC(=O)[C@@H](N)CCCCNC(=O)OCc5ccccc5)c(OC)c(OC)cc4c23)ccc1OC(=O)[C@@H](N)CCCCNC(=O)OCc1ccccc1 [Compound 44]	7.6	7.6	7.6	0.608	7.6	7.6	4.35	7.6	1.18	3.58	7.6	0.182	0.686	5.36	7.6	7.6	5.06	0.48	7.6	3.21	IC (TGI) (LoVo-Dox; Homo sapiens; LOVO-DOX; TGI=total growth inhibition (cytostatic effect); read-out: TGI LOVO-DOX): 2.51 µM; GI50 (DU-145; DU-145): 0.0485 µM; IC (TGI) (DU-145; DU-145): 0.273 µM; GI50 (PANC-1; PANC-1): 1.17 µM; GI50 (LoVo; LOVO): 0.374 µM; IC (TGI) (LoVo; LOVO): 3.18 µM; GI50 (SKOV-3; SK-OV-3, read-out: GI50 SKOV-3): 0.0988 µM; IC (TGI) (SKOV-3; SK-OV-3, read-out: TGI SKOV-3, SKOV-3): 1.15 µM; GI50 (IGROV; Homo sapiens; IGROV; GI=growth inhibition; read-out: GI50 IGROV): 1.06 µM; IC (TGI) (IGROV; Homo sapiens; IGROV; TGI=total growth inhibition (cytostatic effect); read-out: TGI IGROV): 2.32 µM; GI50 (A-549): 5.44 µM; IC (TGI) (A-549): 7.6 µM; CC50 (A-549): 7.6 µM; CC50 (SK-BR-3): 7.6 µM; GI50 (SK-BR-3; SK-BR-3): 0.122 µM; IC (TGI) (SK-BR-3; SK-BR-3): 0.866 µM
